Data on 34 compounds can be found in EPA's ToxValDB 9.5.

The subject of the data set is Rattus norvegicus. The conditions noted are these: oral.
Setting [1] is: short-term, duration: 28 days, gavage, M, Sprague-Dawley, Clinical Observation: Diarrhea + Body Weight Changes: decrease + Food Consumption: decrease + Urinalysis: Color, Brown + Hematology: RET ….
Setting [2] is: short-term, duration: 28 days, gavage, F, Sprague-Dawley, Food Consumption: decrease + Hematology: RBC decrease, Hct decrease1000 Hgb decrease1000 Plt increase, PT increase, APTT increase, Ret ….
Setting [3] is: short-term, duration: 28 days, gavage, M, Sprague-Dawley, Food Consumption: decrease + Hematology: RBC decrease, Hct decrease1000 Hgb decrease1000 Plt increase, PT increase, APTT increase, Ret ….
[4] abbreviates: subchronic, gavage, M, Sprague-Dawley, Clinical Observation: Salivation + Urinalysis: Tubular epithelial cell in sediment + Hematology: PT increase, APTT increase + Blood ….
Where [5] appears, read: subchronic, gavage, M, Sprague-Dawley, Deaths + Clinical Observation: Salivation + Body Weight Changes: Body weight gain decrease + Food Consumption: decrease + Urinalysis: Brown ….

Turning to `O=C(O)c1cccnc1Cl` [3-Carboxy-2-chloropyridine], the NOEL (short-term, duration: 28 days, gavage, M/F, Clinical Observation: Alopecia Salivation + Blood Chemistry: GOT increase, GPT increase, ALP increase, BUN increase + Necropsy: Liver - …) turned out to be 10 mg/kg-day.

As to `Nc1cccc(Cl)c1` [3-Chloroaniline], the NOEL (subchronic, gavage, M/F, Fischer 344, Deaths + Clinical Observation: Bluish discoloration of the genital and footpad regions + Body Weight Changes: decrease + Hematology: Hct …) was less than 10 mg/kg-day.

On to `Cl.Cl.Nc1ccc(Cc2ccc(N)cc2)cc1` [4,4'-Methylenedianiline dihydrochloride], for which the NOEL (subchronic, duration: 13 weeks, water, M/F, Fischer 344, Body Weight Changes: decrease + Histopathology: Liver/bile duct- Hyperplasia Thyroid-Adenomatous goiter Thyroid-Follicullar-cell hyperplasia…) amounted to 30.4 mg/kg-day.

Take `Nc1ccc(Cl)cc1[N+](=O)[O-]` [4-Chloro-2-nitroaniline]: the NOEL (subchronic, gavage, M, Sprague-Dawley, Hematology: Hct decrease, Ret increase + Relative Organ Weight: Heat increase, Liver increase, Kidneys increase, Adrenals increase + …) was determined as 10 mg/kg-day.

Regarding `COc1ccc(N)c([N+](=O)[O-])c1` [4-Methoxy-2-nitroaniline], for the setting “subchronic, gavage, M, Sprague-Dawley, Clinical Observation: Orangish urine Soiled fur Salivation + Body Weight Changes: decrease(trend) + Food Consumption: decrease + Absolute …”, the NOEL was less than 12.5 mg/kg-day.

The NOAEL is the highest tested level that showed no adverse finding. As to `Cc1ccc(O)c([N+](=O)[O-])c1` [4-Methyl-2-nitrophenol], the NOAEL (short-term, duration: 28 days, gavage, F, Sprague-Dawley, Clinical Observation: Sedation Ptosis Salivation Reddish tear Soiled perineal region + Urinalysis: Yellow colored urine pH decrease + …) was found to be 60 mg/kg-day. Further, the NOEL (short-term, duration: 28 days, gavage, M/F, Sprague-Dawley, Clinical Observation: Sedation Ptosis Salivation Reddish tear Soiled perineal region + Urinalysis: Yellow colored urine pH decrease + …) was found to be 60 mg/kg-day.

With `Cc1cnc[nH]1` [4-Methylimidazole], the NOEL (subchronic, diet, M/F, Fischer 344, Deaths + Body Weight Changes: decrease + Hematology: Hct decrease, Hgb decrease, Ret decrease, Plt decrease, RBC decrease + Blood Chemistry…) is less than 60 mg/kg-day.

With `C=Cc1ccc(OC(C)(C)C)cc1` [4-tert-Butoxystyrene], the NOEL (short-term, duration: 28 days, gavage, M/F, Deaths + Clinical Observation: Salivation + Body Weight Changes: Body weight gain decrease + Food Consumption: decrease + Urinalysis: Urine…) stood at 20 mg/kg-day.

For the compound `CC(C)(C)c1ccc(O)c(O)c1` [4-tert-Butylcatechol], under “subchronic, diet, M/F, Fischer 344, Body Weight Changes: decrease + Food Consumption: decrease + Hematology: Hct decrease, Hgb decrease, RBC decrease + Blood Chemistry: ALT …”, the NOEL was less than 75 mg/kg-day.

On to `Nc1ccc(O)c(C(=O)O)c1` [5-Aminosalicylic acid], for which the NOAEL came to 100 mg/kg-day (chronic, duration: 91 days, gavage, F, Sprague-Dawley, Deaths + Urinalysis: Volume increase, Specific gravity decrease, Occult blood Na decrease, K decrease, Cl decrease + Hematology: RBC …) and 100 mg/kg-day (chronic, duration: 91 days, gavage, M, Sprague-Dawley, Deaths + Urinalysis: Volume increase, Specific gravity decrease, Occult blood Na decrease, K decrease, Cl decrease + Hematology: RBC …).

`CCc1ccc(C)nc1` [5-Ethyl-2-methylpyridine]: the NOAEL (short-term, duration: 28 days, gavage, M/F, Sprague-Dawley, Body Weight Changes: decrease + Food Consumption: decrease + Blood Chemistry: BUN increase, CRE increase, AST increase + Relative Organ …) is 30 mg/kg-day.

`CCCCCc1ccc2c(c1)C(=O)c1ccccc1C2=O` [9,10-Anthracenedione, 2-pentyl-]: the NOEL (short-term, duration: 28 days, gavage, F, Sprague-Dawley, Clinical Observation: Salivation (transient) + Hematology: RBC decrease, PT increase + Absolute Organ Weight: Liver increase + Relative …) stood at 15 mg/kg-day.

In the case of `NCCCCCCCCCCC(=O)O` [11-Aminoundecanoic acid], for the setting “subchronic, duration: 13 weeks, diet, M/F, Fischer 344, Deaths + Histopathology: Kidney - mineralization Kidney - transitional-cell hyperplasia Kidney/renal pelvis - hyperplasia”, the NOEL is less than 864 mg/kg-day.

Turning to `CC1(C)CC(=O)CC(C)(C)N1[O]` [(2,2,6,6-Tetramethyl-4-oxopiperidin-1-yl)oxidanyl], the NOEL (short-term, duration: 28 days, gavage, M/F, Clinical Observation: Salivation + Hematology: Trend of Anemia + Absolute Organ Weight: Spleen increase, Liver increase + Histopathology: …) was 40 mg/kg-day.

For the compound `BrC=Cc1ccccc1` [(2-Bromovinyl)benzene], the NOEL (short-term, duration: 28 days, gavage, M/F, CD(SD), Deaths + Clinical Observation: Salivation + Urinalysis: Volume increase, Osmotic pressure decrease, Small epidermal cell + Blood Chemistry: …) is 30 mg/kg-day.

Regarding `C[C@H](CCc1ccccc1)NC[C@H](O)c1ccc(O)c(C(N)=O)c1.Cl` [(R,R)-Dilevalol hydrochloride], the NOEL (subchronic, duration: 90 days, gavage, M/F, Sprague-Dawley, Clinical Observation: Salivation + Body Weight Changes: body weight gain decrease + Urinalysis: Volume increase, Specific gravity decrease…) worked out at 60 mg/kg-day.

As to `CC(=O)N(C)c1ccccc1` [Acetamide, N-methyl-N-phenyl-], the NOEL (short-term, duration: 28 days, gavage, M/F, Sprague-Dawley, Deaths + Clinical Observation: Clonic convulsion Cyanosis Salivation Rearing decrease + Body Weight Changes: decrease + Food Consumption: …) was less than 20 mg/kg-day.

For `C=CCOC(C)=O` [Allyl acetate], where the note is “subchronic, gavage, M/F, Fischer 344, Deaths + Body Weight Changes: decrease + Hematology: Hgb decrease, Plt increase, WBC increase + Blood Chemistry: TP decrease, Alb decrease, …”, the NOEL was less than 6 mg/kg-day.

Take `O=C1c2ccccc2C(=O)c2ccccc21` [Anthraquinone]: under setting [1], the NOAEL was less than 200 mg/kg-day and the NOEL was less than 200 mg/kg-day.

On to `COC(=O)C1=C(C)NC(C)=C(C(=O)OCC(C)=O)C1c1ccccc1[N+](=O)[O-]` (stereo not drawn) [Aranidipine], for which the NOEL (chronic, duration: 91 days, gavage, M/F, Wistar, Deaths + Clinical Observation: Prone position.0 (Dead animal) Hypothermia.0 (Dead animal) Rough respiration Locomotor activity decrease …) was 3 mg/kg-day.

For orientation: LOAEL means the lowest dose or exposure tested at which an adverse effect was seen. On to `O=C1c2ccccc2-c2cccc3cccc1c23` [Benz[de]anthracen-7-one], for which, under setting [2], the LOAEL was 60 mg/kg-day, the LOEL is 60 mg/kg-day, the NOAEL is 15 mg/kg-day and the NOEL turned out to be 15 mg/kg-day. Under setting [3], the LOAEL was found to be 60 mg/kg-day, the LOEL is 60 mg/kg-day, the NOAEL was found to be 15 mg/kg-day and the NOEL amounted to 15 mg/kg-day.

As to `Nc1ccc(Cc2ccc(N)c(Cl)c2Cl)c(Cl)c1Cl` [Benzenamine, 4,4'-methylenebis(2,3-dichloro-], the NOEL (short-term, duration: 28 days, gavage, M/F, Sprague-Dawley, Deaths + Hematology: WBC increase + Blood Chemistry: Alpha 1-globirin, level decrease, K increasemg/kg/ , TG increase/ + Relative Organ …) was 100 mg/kg-day.

Consider `ClCc1ccc(Cl)c(Cl)c1` [Benzene, 1,2-dichloro-4-(chloromethyl)-], for which, where the note is “short-term, duration: 28 days, gavage, M/F, CD(SD), Deaths + Urinalysis: Volume, urinary cast increase, Epithelial cell increase + Absolute Organ Weight: Kidney increase, Liver increase + …”, the NOEL was less than 10 mg/kg-day.

Take `FC(F)(F)c1cccc(C(F)(F)F)c1` [Benzene, 1,3-bis(trifluoromethyl)-]: under setting [4], the NOAEL came out at 150 mg/kg-day and the NOEL was less than 40 mg/kg-day.

As to `Cc1cc(Cl)ccc1Cl` [Benzene, 1,4-dichloro-2-methyl-], the NOEL (subchronic, gavage, M, Sprague-Dawley, Clinical Observation: White turbid urine Salivation + Absolute Organ Weight: Kidney increase + Relative Organ Weight: Kidney increase, R) is 30 mg/kg-day.

Turning to `O=C(OOC(=O)c1ccccc1)c1ccccc1` [Benzoyl peroxide], the NOAEL (short-term, duration: 28 days, gavage, M, Sprague-Dawley, Absolute Organ Weight: Testes decrease + Relative Organ Weight: Testes decrease, Epididymis decrease + Histopathology: Testes: Degeneration) turned out to be 500 mg/kg-day.

Turning to `CCCCCCCC[N+](C)(C)Cc1ccccc1.[Cl-]` [Benzyldimethyloctylammonium chloride], under setting [5], the NOAEL was 15 mg/kg-day and the NOEL is 15 mg/kg-day.

Regarding `C[N+](C)(C)CC(=O)[O-]` [Betaine], under “subchronic, diet, M/F, Sprague-Dawley, Food Consumption: decrease + Urinalysis: Urine volume increase,pH decrease + Hematology: Plt increase, Fib increase + Blood Chemistry: Alp …”, the NOEL was less than 1%.

Turning to `COc1ccc(CCNCC(O)COc2cccc(C)c2)cc1OC.Cl` (stereo not drawn) [Bevantolol hydrochloride], the NOEL (chronic, duration: 91 days, gavage, M/F, CD, Deaths + Clinical Observation: Salivation Sedation Ptosis Prone position Lateral position Crouching position Convulsion Incontinence of …) turned out to be 60 mg/kg-day.

For the compound `ClC(COCC(Cl)C(Cl)(Cl)Cl)C(Cl)(Cl)Cl` (stereo not drawn) [Bis(2,3,3,3-tetrachloropropyl) ether], the NOEL (subchronic, gavage, M/F, Wistar, Clinical Observation: Lethargy + Body Weight Changes: decrease + Urinalysis: Ketone body increase, TP increase + Hematology: Hgb decrease, …) was 40 mg/kg-day.

For `CCC[CH2][Sn]([Cl])([Cl])[Cl]` [Butyltin trichloride], the NOAEL (subchronic, duration: 13 weeks, diet, M/F, Wistar, Urinalysis: pH increase + Hematology: WBC increase, Lymph increase + Blood Chemistry: ALP increase, ASAT increase, GGT increase, A/G …) stood at 144 mg/kg-day.

With `COc1cc(-c2ccc(N=Nc3c(S(=O)(=O)[O-])cc4cc(S(=O)(=O)[O-])cc(N)c4c3O)c(OC)c2)ccc1N=Nc1c(S(=O)(=O)[O-])cc2cc(S(=O)(=O)[O-])cc(N)c2c1O.[Na+].[Na+].[Na+].[Na+]` [C.I. Direct Blue 15], the NOEL is 380 mg/kg-day (subchronic, duration: 13 weeks, drinking water, F, Fischer 344, Deaths + Body Weight Changes: decrease + Water Consumption: decrease + Absolute Organ Weight: Kidney increase + Relative Organ Weight: …) and less than 190 mg/kg-day (subchronic, duration: 13 weeks, drinking water, M, Fischer 344, Deaths + Body Weight Changes: decrease + Water Consumption: decrease + Absolute Organ Weight: Kidney increase + Relative Organ Weight: …).

Regarding `Nc1cc(S(=O)(=O)[O-])cc2cc(S(=O)(=O)[O-])c(N=Nc3ccc(-c4ccc(N=Nc5c(S(=O)(=O)[O-])cc6cc(S(=O)(=O)[O-])cc(N)c6c5[O-])c([O-])c4)cc3[O-])c([O-])c12.[Cu+2].[Cu+2].[Na+].[Na+].[Na+].[Na+]` [C.I. Direct Blue 218], the NOEL reads like this: (subchronic, duration: 13 weeks, diet, F, Fischer 344, Body Weight Changes: decrease + Food Consumption: decrease + Hematology: Hct decrease, Hgb decrease + Blood Chemistry: ALT increase, , SDH …) 200 mg/kg-day; (subchronic, duration: 13 weeks, diet, M/F, Fischer 344, Body Weight Changes: decrease + Food Consumption: decrease + Hematology: Hct decrease, Hgb decrease + Blood Chemistry: ALT increase, , SDH …) less than 288 mg/kg-day.

As for `O=C(O)C1C(C(=O)O)C2(Cl)C(Cl)=C(Cl)C1(Cl)C2(Cl)Cl` (stereo not drawn) [Chlorendic acid], the NOEL (subchronic, duration: 13 weeks, diet, M/F, Fischer 344, Body Weight Changes: decrease + Histopathology: Liver-Cytomegaly Liver/bile duct -Hyperplasia Liver-Mitotic alteration) was less than 59.5 mg/kg-day.
